Test results: ChEMBL document CHEMBL3108726, “Sorbicatechols A and B, antiviral sorbicillinoids from the marine-derived fungus Penicillium chrysogenum PJX-17” (J Nat Prod, 2014)

These molecules were tested on Influenza A virus (assay: Antiviral activity against Influenza A virus (A/Puerto Rico/8/34(H1N1)) infected in MDCK cells assessed as inhibition of virus-induced cytopathic effect after 48 hrs by crystal violet staining technique). Conditions: A/Puerto Rico/8/1934(H1N1).
Type: functional, organism-based

Structure (SMILES) | IC50 [µM]
C/C=C/C=C/C(O)=C1/C(=O)[C@]2(C)C(=O)[C@@](C)(O)[C@H]1C[C@H]2c1ccc(O)c(OC)c1 | 113
NC(=O)c1ncn([C@@H]2O[C@H](CO)[C@@H](O)[C@H]2O)n1 [RIBAVIRIN] | 84
C/C=C/C=C/C(O)=C1/C(=O)[C@]2(C)C(=O)[C@@](C)(O)[C@H]1C[C@@H]2c1ccc(O)c(OC)c1 | 85
